In ChEMBL document CHEMBL1150935, “New polyketides from the sponge Plakortis sp” (J Nat Prod, 1998):
≈ marks a conversion by molar mass, not a printed value.

Test: Toxicity against Artemia larvae
Assay type: organism-based
Settings: in vivo, read-out: LD50 (the source's name)

## CCCC[C@H](C)CC1(CC)C=C(CC)C(CC(=O)OCC)OO1 (some centres undefined)
  LC50: > 100 µg/mL

## CCCC[C@H](C)C[C@]1(CC)C=C(CC)/C(=C/C(=O)OC)O1
  LC50: 7 µg/mL (≈ 23.8 µM)

## CCCC[C@H](C)CC(CC)C[C@@]1(CC)C[C@H](CC)[C@H](CC(=O)O)OO1 (some centres undefined)
  LC50: 15 µg/mL (≈ 42.1 µM)

## CCCC[C@H](C)CC1(CC)C=C(CC)C(CC(=O)OC)OO1 (some centres undefined)
  LC50: 70 µg/mL (≈ 224 µM)
